Earlier results on 1 molecule are cited in patent publication US7704724B1 (priority 2006, dated 2010).

In data set [1] the target is urease from Klebsiella aerogenes (Klebsiella aerogenes, UniProt P18314). As to conditions: read-out: fluoride inhibition constant (Ki).
The target in data set [2] is Jack Bean urease (Canavalia ensiformis, UniProt P07374). The settings on record: read-out: fluoride inhibition constant (Ki).

Molecules are shown by their SMILES. pKi: −log10 of the molar value.

Jack Bean urease, sequence (P07374 whole entry, looked up): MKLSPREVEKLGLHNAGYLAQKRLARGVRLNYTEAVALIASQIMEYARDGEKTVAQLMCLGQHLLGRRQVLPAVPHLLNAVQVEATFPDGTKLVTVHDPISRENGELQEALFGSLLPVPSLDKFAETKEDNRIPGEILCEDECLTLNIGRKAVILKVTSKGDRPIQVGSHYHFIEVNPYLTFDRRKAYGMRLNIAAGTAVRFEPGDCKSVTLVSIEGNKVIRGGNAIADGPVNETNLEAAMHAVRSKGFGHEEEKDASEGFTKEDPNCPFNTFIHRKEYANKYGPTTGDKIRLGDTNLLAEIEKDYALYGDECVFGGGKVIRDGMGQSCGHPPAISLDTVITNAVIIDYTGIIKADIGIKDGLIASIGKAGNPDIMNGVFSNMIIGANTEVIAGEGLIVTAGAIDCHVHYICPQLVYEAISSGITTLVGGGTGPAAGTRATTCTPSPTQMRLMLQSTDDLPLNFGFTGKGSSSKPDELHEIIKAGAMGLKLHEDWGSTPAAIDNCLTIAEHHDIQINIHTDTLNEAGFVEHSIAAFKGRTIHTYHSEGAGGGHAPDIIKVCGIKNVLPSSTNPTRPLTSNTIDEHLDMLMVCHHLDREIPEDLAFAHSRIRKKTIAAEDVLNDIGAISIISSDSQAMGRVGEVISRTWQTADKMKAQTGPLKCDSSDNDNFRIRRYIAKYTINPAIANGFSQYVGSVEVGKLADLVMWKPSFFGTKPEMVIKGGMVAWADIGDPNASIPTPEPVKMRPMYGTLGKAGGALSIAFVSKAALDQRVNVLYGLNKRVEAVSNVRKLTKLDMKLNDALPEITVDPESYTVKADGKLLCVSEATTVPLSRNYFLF
urease from Klebsiella aerogenes, sequence (P18314 whole entry): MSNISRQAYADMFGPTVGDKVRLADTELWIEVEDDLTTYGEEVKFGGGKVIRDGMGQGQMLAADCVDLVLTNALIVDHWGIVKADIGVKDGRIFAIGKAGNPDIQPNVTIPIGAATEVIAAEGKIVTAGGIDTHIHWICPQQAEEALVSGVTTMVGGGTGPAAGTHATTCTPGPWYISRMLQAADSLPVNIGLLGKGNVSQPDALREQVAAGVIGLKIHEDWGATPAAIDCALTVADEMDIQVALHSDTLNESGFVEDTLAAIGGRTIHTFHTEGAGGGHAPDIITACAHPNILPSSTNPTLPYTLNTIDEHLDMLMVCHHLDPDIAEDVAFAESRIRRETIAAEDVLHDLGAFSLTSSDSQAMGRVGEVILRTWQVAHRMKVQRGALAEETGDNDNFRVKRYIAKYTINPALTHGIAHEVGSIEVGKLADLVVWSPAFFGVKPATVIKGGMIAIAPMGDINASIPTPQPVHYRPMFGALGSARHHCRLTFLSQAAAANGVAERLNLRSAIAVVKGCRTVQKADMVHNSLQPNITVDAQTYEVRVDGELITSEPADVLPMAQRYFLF
urease from Klebsiella aerogenes, sequence (P18315 whole entry partner): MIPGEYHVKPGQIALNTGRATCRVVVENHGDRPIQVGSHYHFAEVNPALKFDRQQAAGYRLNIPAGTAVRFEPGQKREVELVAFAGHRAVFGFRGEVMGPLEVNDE
urease from Klebsiella aerogenes, sequence (P18316 whole entry partner): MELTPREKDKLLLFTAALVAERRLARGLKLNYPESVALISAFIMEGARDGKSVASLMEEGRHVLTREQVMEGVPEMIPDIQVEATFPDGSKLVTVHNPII

The term pKi denotes the negative decadic logarithm of the Ki, by convention in mol/L. `F` [fluoride]: the pKi was 3.70 in data set [1] and 3.00 in data set [2].
